# Experimental data from US11512268B2, “Storage-stable enzyme preparations, their production and use” (BASF SE, priority 2017, dated 2022).
# Key:
# [1] = target: T1, Savinase (Lederbergia lenta, UniProt P29600); assay: storage stability of protease (Savinase activity, Suc-AAPF-pNA substrate) in liquid formulations at 37° C.; format: biochemical; conditions: Savinase 16.0 L 0.5 wt %, storage at 37° C.
# T1 construct: purchased Sigma-Aldrich
# T1 sequence (P29600 1-269): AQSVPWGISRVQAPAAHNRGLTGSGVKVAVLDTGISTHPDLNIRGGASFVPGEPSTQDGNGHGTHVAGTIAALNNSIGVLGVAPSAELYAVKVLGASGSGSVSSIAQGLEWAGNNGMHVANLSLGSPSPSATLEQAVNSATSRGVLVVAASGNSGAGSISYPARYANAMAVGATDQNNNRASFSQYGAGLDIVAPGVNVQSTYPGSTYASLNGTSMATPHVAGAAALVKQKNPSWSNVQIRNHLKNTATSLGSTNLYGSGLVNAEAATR
# Description: (§1) The storage stability of Lipase and Protease in water was assessed at 37° C.
# (§2) Base test formulations were manufactured by making base formulations I to VI by mixing the components according to Table 1.
# (§3) The respective salt (component (a)) or comparative compound was added, if applicable, to the respective base formulation in amounts as indicated in Table 1.
# (§4) The amount of enzyme as provided in Table 1 refers to active protein. Either lipase or protease was added, depending on which enzyme activity was measured.
# (§5) Lipolase® 100 L (CAS-No. 9001-62-1, EC-No. 232-619-9) was purchased from Sigma-Aldrich. Savinase® 16.0 L (CAS-No. 9014-01-1, EC-No. 232-752-2) was purchased from Sigma-Aldrich.
# Savinase activity at certain points in time as indicated in Table 3 was be determined by employing Succinyl-Ala-Ala-Pro-Phe-p-nitroanilide (Suc-AAPF-pNA, short AAPF) as substrate. pNA is cleaved from the substrate molecule by proteolytic cleavage, resulting in release of yellow color of free pNA which was determined by measuring OD405. Measurement were done at 20° C.
# The proteolytic activity values provided in Table 3 were calculated referring to the 100% value determined in the reference formulation at the time 0.
# (§6) The nomenclature of formulations is as follows: the Roman number before the full stop characterizes the base formulation, the Arabian number the type of salt (A.# inventive salt (component (a)); C-(A.#) comparative compound). Zero (“0”): no salt, but diethylene glycol.
# [2] = target: T2, Lipolase (Thermomyces lanuginosus, UniProt O59952); assay: storage stability of lipase (Lipolase activity, pNitrophenol-valerate substrate) in liquid formulations at 37° C.; format: biochemical, Thermomyces lanuginosa; conditions: Lipolase 0.4 wt %, storage at 37° C.
# T2 construct: purchased Sigma-Aldrich
# T2 sequence (O59952 23-291): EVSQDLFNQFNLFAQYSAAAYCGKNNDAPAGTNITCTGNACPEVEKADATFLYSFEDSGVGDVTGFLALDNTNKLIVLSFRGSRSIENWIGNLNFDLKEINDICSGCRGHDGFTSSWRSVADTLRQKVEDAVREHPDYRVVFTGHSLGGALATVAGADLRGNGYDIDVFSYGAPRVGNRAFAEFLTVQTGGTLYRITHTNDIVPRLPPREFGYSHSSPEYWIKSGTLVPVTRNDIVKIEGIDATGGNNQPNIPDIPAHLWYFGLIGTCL
# Description: as §1, §2, §3, §4, §5
# Lipolase activity at certain points in time as indicated in Table 2 was be determined by employing pNitrophenol-valerate (2.4 mM pNP-C5 in 100 mM Tris pH 8.0, 0.01% Triton X100) as a substrate. The absorption was measured at 20° C. every 30 seconds over 5 minutes at 405 nm. The slope (absorbance increase at 405 nm per minute) of the time dependent absorption-curve is directly proportional to the activity of the lipase.
# The lipolytic activity values provided in Table 2 were calculated referring to the 100% value determined in the reference formulation at the time 0.
# as §6
smiles,measurement,setting,value
C[N+](C)(C)CCO.C[N+](C)(C)CCO.C[N+](C)(C)CCO.O=C([O-])CC(O)(CC(=O)[O-])C(=O)[O-] [C-(A.18)],protease activity,"[1]; base formulation III., component (a) 2.5 wt %, 1 d",94%
same,protease activity,"[1]; base formulation III., component (a) 2.5 wt %, 3 d",85%
same,protease activity,"[1]; base formulation III., component (a) 2.5 wt %, 6 d",72%
same,protease activity,"[1]; base formulation III., component (a) 2.5 wt %, 10 d",54%
same,protease activity,"[1]; base formulation III., component (a) 2.5 wt %, 15 d",43%
same,protease activity,"[1]; base formulation III., component (a) 2.5 wt %, 20 d",35%
same,protease activity,"[1]; base formulation III., component (a) 2.5 wt %, 25 d",28%
same,protease activity,"[1]; base formulation III., component (a) 2.5 wt %, 30 d",14%
same,protease activity,"[1]; base formulation III., component (a) 2.5 wt %, T0",94%
same,protease activity,"[1]; base formulation V., component (a) 4.0 wt %, 1 d",90%
same,protease activity,"[1]; base formulation V., component (a) 4.0 wt %, 3 d",83%
same,protease activity,"[1]; base formulation V., component (a) 4.0 wt %, 6 d",64%
same,protease activity,"[1]; base formulation V., component (a) 4.0 wt %, 10 d",50%
same,protease activity,"[1]; base formulation V., component (a) 4.0 wt %, 15 d",40%
same,protease activity,"[1]; base formulation V., component (a) 4.0 wt %, 20 d",33%
same,protease activity,"[1]; base formulation V., component (a) 4.0 wt %, 25 d",25%
same,protease activity,"[1]; base formulation V., component (a) 4.0 wt %, 30 d",16%
same,protease activity,"[1]; base formulation V., component (a) 4.0 wt %, T0",83%
same,lipase activity,"[2]; base formulation I., component (a) 2.5 wt %, 1 d",91%
same,lipase activity,"[2]; base formulation I., component (a) 2.5 wt %, 3 d",84%
same,lipase activity,"[2]; base formulation I., component (a) 2.5 wt %, 6 d",72%
same,lipase activity,"[2]; base formulation I., component (a) 2.5 wt %, 10 d",55%
same,lipase activity,"[2]; base formulation I., component (a) 2.5 wt %, 15 d",45%
same,lipase activity,"[2]; base formulation I., component (a) 2.5 wt %, 20 d",39%
same,lipase activity,"[2]; base formulation I., component (a) 2.5 wt %, 25 d",32%
same,lipase activity,"[2]; base formulation I., component (a) 2.5 wt %, 30 d",29%
same,lipase activity,"[2]; base formulation I., component (a) 2.5 wt %, T0",98%
same,lipase activity,"[2]; base formulation IV., component (a) 4.0 wt %, 1 d",91%
same,lipase activity,"[2]; base formulation IV., component (a) 4.0 wt %, 3 d",84%
same,lipase activity,"[2]; base formulation IV., component (a) 4.0 wt %, 6 d",72%
same,lipase activity,"[2]; base formulation IV., component (a) 4.0 wt %, 10 d",58%
same,lipase activity,"[2]; base formulation IV., component (a) 4.0 wt %, 15 d",49%
same,lipase activity,"[2]; base formulation IV., component (a) 4.0 wt %, 20 d",46%
same,lipase activity,"[2]; base formulation IV., component (a) 4.0 wt %, 25 d",39%
same,lipase activity,"[2]; base formulation IV., component (a) 4.0 wt %, 30 d",35%
same,lipase activity,"[2]; base formulation IV., component (a) 4.0 wt %, T0",95%
same,lipase activity,"[2]; base formulation VI., component (a) 4.0 wt %, 1 d",90%
same,lipase activity,"[2]; base formulation VI., component (a) 4.0 wt %, 3 d",83%
same,lipase activity,"[2]; base formulation VI., component (a) 4.0 wt %, 6 d",75%
same,lipase activity,"[2]; base formulation VI., component (a) 4.0 wt %, 10 d",58%
same,lipase activity,"[2]; base formulation VI., component (a) 4.0 wt %, 15 d",50%
same,lipase activity,"[2]; base formulation VI., component (a) 4.0 wt %, 20 d",48%
same,lipase activity,"[2]; base formulation VI., component (a) 4.0 wt %, 25 d",37%
same,lipase activity,"[2]; base formulation VI., component (a) 4.0 wt %, 30 d",32%
same,lipase activity,"[2]; base formulation VI., component (a) 4.0 wt %, T0",96%
